Literature values as cited in patent US20190105332A1, “METHODS OF TREATING PROSTATE CANCER” (Janssen Oncology, Inc., priority 2017, published 2019).
Where two headings read alike, the source gives them in different places.

How the values were obtained:
CYP2C8 = target: T1, CYP2C8 (Homo sapiens, UniProt P10632); parameters: from tissue; host or cells: in vivo, healthy human subjects (endogenous enzyme); conditions: healthy subjects; single dose of 1,000 mg abiraterone acetate
T1 sequence (P10632 1-490): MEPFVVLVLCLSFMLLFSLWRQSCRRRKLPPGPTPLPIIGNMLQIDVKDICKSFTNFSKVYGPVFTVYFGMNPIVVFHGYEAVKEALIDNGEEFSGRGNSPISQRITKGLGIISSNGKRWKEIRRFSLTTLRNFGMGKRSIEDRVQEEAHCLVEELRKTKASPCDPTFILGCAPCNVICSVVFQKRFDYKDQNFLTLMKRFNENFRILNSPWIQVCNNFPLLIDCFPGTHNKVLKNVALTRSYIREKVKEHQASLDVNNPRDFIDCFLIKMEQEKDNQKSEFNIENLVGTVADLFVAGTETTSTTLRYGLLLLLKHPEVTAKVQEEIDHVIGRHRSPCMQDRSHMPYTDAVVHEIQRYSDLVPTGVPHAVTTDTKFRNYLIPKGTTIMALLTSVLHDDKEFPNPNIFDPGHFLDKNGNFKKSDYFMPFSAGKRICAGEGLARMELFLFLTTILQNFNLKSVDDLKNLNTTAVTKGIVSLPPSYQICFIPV

CYP2D6 = target: T2, CYP2D6 (Homo sapiens, UniProt P10635)
T2 construct: from tissue; host or cells: in vivo, trial participants (endogenous hepatic enzyme)

P-glycoprotein (P-gp) = P-glycoprotein (P-gp) (Homo sapiens, UniProt P08183); conditions: in vitro
[1] = not given; remark: listed apart in the source
[2] = not given; remark: listed apart in the source
[3] = rat micronucleus assay
[4] = not given; remark: listed apart in the source
[5] = 6-month study
[6] = not given; remark: listed apart in the source
[7] = test system: primary human lymphocytes
[8] = not given; remark: listed apart in the source
[9] = not given; remark: listed apart in the source
[10] = not given; remark: listed apart in the source
CYP1A2 = target: T3, CYP1A2 (Homo sapiens, UniProt P05177); conditions: abiraterone acetate 1,000 mg daily plus prednisone 5 mg twice daily; single 100 mg theophylline
T3 sequence (P05177 1-516): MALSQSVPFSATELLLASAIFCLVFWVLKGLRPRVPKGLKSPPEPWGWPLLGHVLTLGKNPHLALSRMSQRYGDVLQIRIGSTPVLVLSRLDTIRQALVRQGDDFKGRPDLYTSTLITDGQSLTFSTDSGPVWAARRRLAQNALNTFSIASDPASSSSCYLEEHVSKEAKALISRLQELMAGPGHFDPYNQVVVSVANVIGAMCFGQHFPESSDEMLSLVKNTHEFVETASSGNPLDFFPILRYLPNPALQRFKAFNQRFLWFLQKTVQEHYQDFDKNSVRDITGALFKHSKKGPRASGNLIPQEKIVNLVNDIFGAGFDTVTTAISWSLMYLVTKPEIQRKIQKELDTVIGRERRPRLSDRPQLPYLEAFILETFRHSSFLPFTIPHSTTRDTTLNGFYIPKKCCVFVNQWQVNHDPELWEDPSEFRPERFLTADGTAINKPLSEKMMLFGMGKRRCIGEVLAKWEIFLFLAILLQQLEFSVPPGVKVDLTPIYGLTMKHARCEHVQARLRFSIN

[11] = abiraterone acetate 1,000 mg daily and prednisone 5 mg twice daily
[12] = oral, 2 weeks until day 7 of pregnancy

T2 sequence (P10635 whole entry): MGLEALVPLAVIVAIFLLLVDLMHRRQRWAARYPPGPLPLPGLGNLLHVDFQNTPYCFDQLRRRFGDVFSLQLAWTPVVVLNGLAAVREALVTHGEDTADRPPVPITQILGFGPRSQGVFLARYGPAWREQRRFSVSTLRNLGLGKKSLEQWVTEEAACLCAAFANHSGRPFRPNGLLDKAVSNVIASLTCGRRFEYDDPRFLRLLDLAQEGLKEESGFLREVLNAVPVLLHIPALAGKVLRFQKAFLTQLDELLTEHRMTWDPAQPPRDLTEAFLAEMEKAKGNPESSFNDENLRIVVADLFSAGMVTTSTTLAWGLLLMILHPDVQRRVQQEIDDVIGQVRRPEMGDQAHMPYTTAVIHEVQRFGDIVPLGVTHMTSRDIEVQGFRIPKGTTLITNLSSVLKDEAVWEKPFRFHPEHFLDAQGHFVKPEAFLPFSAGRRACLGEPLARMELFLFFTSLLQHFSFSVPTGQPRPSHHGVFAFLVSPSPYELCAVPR
Sequence of P-glycoprotein (P-gp) (P08183 whole entry): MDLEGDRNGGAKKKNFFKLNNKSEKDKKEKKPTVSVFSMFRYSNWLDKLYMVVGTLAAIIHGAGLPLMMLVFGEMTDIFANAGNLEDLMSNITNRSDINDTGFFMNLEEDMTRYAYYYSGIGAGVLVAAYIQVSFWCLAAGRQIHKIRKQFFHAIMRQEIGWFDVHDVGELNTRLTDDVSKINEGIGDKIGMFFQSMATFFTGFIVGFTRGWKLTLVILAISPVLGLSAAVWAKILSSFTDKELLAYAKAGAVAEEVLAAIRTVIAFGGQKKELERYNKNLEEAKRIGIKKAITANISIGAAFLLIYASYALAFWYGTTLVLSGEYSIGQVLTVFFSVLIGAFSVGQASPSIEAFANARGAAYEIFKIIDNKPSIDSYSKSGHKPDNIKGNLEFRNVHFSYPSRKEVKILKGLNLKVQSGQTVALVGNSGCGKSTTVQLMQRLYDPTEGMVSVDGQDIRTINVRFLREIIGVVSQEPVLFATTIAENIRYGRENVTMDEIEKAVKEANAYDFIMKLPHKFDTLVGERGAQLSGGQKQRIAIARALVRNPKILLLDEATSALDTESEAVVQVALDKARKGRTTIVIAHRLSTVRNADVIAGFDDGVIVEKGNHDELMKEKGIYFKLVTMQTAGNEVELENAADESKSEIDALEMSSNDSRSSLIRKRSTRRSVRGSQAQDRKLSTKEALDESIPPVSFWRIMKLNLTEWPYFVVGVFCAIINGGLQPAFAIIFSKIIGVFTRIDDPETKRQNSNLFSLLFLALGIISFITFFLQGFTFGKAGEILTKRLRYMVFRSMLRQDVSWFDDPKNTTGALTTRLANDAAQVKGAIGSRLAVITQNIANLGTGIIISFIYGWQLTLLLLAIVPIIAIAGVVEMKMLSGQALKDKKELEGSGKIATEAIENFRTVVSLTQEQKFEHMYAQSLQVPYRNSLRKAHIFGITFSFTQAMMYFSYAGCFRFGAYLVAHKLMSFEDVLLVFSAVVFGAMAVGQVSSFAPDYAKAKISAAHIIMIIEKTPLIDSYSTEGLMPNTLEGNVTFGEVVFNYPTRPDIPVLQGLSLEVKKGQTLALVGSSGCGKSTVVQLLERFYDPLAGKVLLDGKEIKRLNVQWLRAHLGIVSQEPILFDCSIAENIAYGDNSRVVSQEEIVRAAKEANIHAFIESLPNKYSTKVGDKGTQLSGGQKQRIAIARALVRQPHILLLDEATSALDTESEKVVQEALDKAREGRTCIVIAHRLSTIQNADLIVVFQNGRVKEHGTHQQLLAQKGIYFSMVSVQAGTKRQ

CC(=O)O[C@H]1CC[C@@]2(C)C(=CC[C@@H]3[C@@H]2CC[C@]2(C)C(c4cccnc4)=CC[C@@H]32)C1 [abiraterone acetate, (3β)-17-(3-pyridinyl) androsta-5,16-dien-3-yl acetate]
increase in AUC of pioglitazone (CYP2C8 substrate) (CYP2C8): 46% | increase in AUC of dextromethorphan (CYP2D6 substrate) (CYP2D6; [11]): 2.9 fold | increase in Cmax of dextromethorphan (CYP2D6 substrate) (CYP2D6; [11]): 2.8 fold | increase in AUC for dextrorphan (CYP2D6; abiraterone acetate 1,000 mg daily plus prednisone 5 mg twice daily): approximately 1.3 fold | inhibition of P-gp (P-glycoprotein (P-gp)): inhibitor | substrate of P-glycoprotein (P-gp) (P-glycoprotein (P-gp); clinically relevant concentrations): not substrates | conversion to abiraterone (likely through esterase activity): not CYP mediated | compound present in feces, share of the administered dose (oral 14C-abiraterone acetate): approximately 55% | radioactive dose recovered in feces (oral administration): approximately 88% | radioactive dose recovered in urine (oral administration): approximately 5% | carcinogenicity in female rats ([1]; exposure levels up to 0.8 times the human clinical exposure based on AUC): not carcinogenic | carcinogenicity in male rats ([1]; oral 5, 15, and 50 mg/kg/day): increased the combined incidence of interstitial, cell adenomas and carcinomas in the testes at all dose levels tested | dose with pre-implantation loss [2, 12]: 300 mg/kg/day | doses with increased incidence of irregular or extended estrous cycles [2, 12]: ≥ 30 mg/kg/day | mating, fertility, and litter parameters ([2]; rat, in vivo): no differences | time after last administration at which effects on female rats were reversible ([2]; rat, in vivo): 4 weeks | clastogenicity in vivo [3]: not mutagenic in an in vitro microbial mutagenesis (Ames) assay or clastogenic | 30 mg/kg/day in rats relative to the recommended dose of 1,000 mg/day ([4]; based on body surface area): approximately 0.3 times | doses with reduced reproductive organ weights, sperm counts, sperm motility, altered sperm morphology and decreased fertility ([4]; dosed orally for 4 weeks): ≥ 30 mg/kg/day | time after last administration at which effects on male rats were reversible ([4]; rat, in vivo): 16 weeks | carcinogenicity [5]: not carcinogenic | systemic exposure (AUC) relative to the AUC in patients ([6]; 100 mg/kg/day): ~0.3 times | dose with decreased fetal body weight ([6]; oral, gestational days 6-17): 100 mg/kg/day | doses that caused maternal toxicity ([6]; oral, gestational days 6-17): ≥ 10 mg/kg/day | doses with decreased fetal ano-genital distance ([6]; oral, gestational days 6-17): ≥ 30 mg/kg/day | doses with embryo-fetal lethality, fetal developmental delay and urogenital effects ([6]; rat, in vivo, po): ≥ 10 mg/kg/day | clastogenicity in vitro [7]: not mutagenic in an in vitro microbial mutagenesis (Ames) assay or clastogenic | exposure at which a reduction in circulating testosterone levels occurred ([8]; 13- and 39-week studies): approximately one half the human clinical exposure | cataracts ([8]; 39-week, daily oral, 2 times greater than the clinical exposure based on AUC): no cataracts were observed | doses with atrophy, aspermia/hypospermia, and hyperplasia in the reproductive system ([8]; 39-weeks): ≥ 250 mg/kg/day | exposure at which a reduction in circulating testosterone levels occurred ([9]; 13- and 26-week studies): approximately one half the human clinical exposure | doses with dose-dependent increase in cataracts ([9]; daily oral, 26 weeks, similar to the human clinical exposure based on AUC): ≥ 50 mg/kg/day | doses with atrophy, aspermia/hypospermia, and hyperplasia in the reproductive system ([9]; male rats, 13- and 26-weeks): ≥ 50 mg/kg/day | octanol-water partition coefficient (Log P) [10]: 5.12 | pKa of the aromatic nitrogen [10]: 5.19 | solubility in water [10]: practically insoluble | systemic exposure of theophylline (CYP1A2 substrate) (CYP1A2): no increase
